From ChEMBL document CHEMBL4725253, “Discovery of quinoline-based irreversible BTK inhibitors” (Bioorg Med Chem Lett, 2020)

Tests used:
[1] = target: T1, Tyrosine-protein kinase BTK (Homo sapiens, UniProt Q06187); assay: Inhibition of human recombinant full length N-terminal His6-tagged BTK expressed in baculovirus infected Sf9 cells using fluorescein labeled Blk/Lyntide substrate preincubated with enzyme for 60 mins followed by further incubation with substrate and ATP for 120 mins by IMAP assay
[2] = Inhibition of anti-human alphaIgM-stimulated MIP1beta production in human Ramos B cells preincubated for 1 hr followed by anti-human IgM stimulation for 6 hrs by ELISA; type: functional, cell-based
[3] = target: Epidermal growth factor receptor (Homo sapiens, UniProt P00533); assay: Inhibition of EGFR (unknown origin) expressed in baculovirus system using fluorescein labeled PDGFR-tide substrate peptide preincubated for 60 mins followed by ATP addition and measured after 60 mins by IMAP assay
[4] = Solubility of compound by turbidimetric assay; type: physicochemical
Homo sapiens = species: Homo sapiens; assay: Selectivity index, ratio of IC50 for EGFR (unknown origin) expressed in baculovirus system to IC50 for human recombinant full length N-terminal His6-tagged BTK expressed in baculovirus infected Sf9 cells
[5] = target: T1, Tyrosine-protein kinase BTK; assay: Covalent inhibition of His-tagged human full length recombinant BTK expressed in baculovirus expression system incubated for 5 to 120 mins by Lanthascreen TR-FRET assay; conditions: time min 5-120, TDE = time-dependent effect
[6] = target: Tyrosine-protein kinase Blk (Homo sapiens, UniProt P51451); assay: Inhibition of recombinant full length human His-tagged BLK cytoplasmic domain expressed in baculovirus expression system using tyrosine-1 peptide as substrate preincubated for 1 hr in presence of ATP by Z'-LYTE assay
[7] = In vivo inhibition of CD69 expression in po dosed mouse; type: functional
[8] = Inhibition of goat anti-human IgM F(ab')-stimulated CD69 cell surface expression in human PBMC preincubated for 2 hrs followed by anti-human IgM stimulation for 18 hrs by flow cytometric analysis; type: functional, tissue-based
Blood = assay: Inhibition of mouse anti-human anti-IgD-stimulated CD69 cell surface expression in human whole blood preincubated for 2 hrs followed by anti-human anti-IgD stimulation for 18 hrs by flow cytometric analysis; type: functional, tissue-based

T1 sequence (Q06187 whole entry): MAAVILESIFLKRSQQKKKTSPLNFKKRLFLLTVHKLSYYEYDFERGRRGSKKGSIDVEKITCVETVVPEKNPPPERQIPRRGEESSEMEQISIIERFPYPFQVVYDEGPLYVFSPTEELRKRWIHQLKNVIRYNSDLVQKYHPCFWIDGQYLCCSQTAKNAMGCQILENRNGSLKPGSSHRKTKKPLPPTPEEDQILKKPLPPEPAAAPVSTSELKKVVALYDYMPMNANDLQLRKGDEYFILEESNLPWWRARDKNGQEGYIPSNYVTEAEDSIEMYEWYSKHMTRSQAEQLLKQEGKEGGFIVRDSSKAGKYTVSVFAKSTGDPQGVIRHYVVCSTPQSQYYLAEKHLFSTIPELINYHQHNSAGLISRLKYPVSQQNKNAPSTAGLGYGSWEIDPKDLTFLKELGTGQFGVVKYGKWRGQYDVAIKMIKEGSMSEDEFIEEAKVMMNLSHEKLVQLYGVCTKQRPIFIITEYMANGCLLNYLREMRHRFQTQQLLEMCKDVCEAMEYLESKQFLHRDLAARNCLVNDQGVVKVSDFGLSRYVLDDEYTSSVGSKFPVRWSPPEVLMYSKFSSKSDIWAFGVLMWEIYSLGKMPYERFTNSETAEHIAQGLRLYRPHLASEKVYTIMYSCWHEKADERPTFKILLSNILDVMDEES
Sequence of Epidermal growth factor receptor (P00533 whole entry): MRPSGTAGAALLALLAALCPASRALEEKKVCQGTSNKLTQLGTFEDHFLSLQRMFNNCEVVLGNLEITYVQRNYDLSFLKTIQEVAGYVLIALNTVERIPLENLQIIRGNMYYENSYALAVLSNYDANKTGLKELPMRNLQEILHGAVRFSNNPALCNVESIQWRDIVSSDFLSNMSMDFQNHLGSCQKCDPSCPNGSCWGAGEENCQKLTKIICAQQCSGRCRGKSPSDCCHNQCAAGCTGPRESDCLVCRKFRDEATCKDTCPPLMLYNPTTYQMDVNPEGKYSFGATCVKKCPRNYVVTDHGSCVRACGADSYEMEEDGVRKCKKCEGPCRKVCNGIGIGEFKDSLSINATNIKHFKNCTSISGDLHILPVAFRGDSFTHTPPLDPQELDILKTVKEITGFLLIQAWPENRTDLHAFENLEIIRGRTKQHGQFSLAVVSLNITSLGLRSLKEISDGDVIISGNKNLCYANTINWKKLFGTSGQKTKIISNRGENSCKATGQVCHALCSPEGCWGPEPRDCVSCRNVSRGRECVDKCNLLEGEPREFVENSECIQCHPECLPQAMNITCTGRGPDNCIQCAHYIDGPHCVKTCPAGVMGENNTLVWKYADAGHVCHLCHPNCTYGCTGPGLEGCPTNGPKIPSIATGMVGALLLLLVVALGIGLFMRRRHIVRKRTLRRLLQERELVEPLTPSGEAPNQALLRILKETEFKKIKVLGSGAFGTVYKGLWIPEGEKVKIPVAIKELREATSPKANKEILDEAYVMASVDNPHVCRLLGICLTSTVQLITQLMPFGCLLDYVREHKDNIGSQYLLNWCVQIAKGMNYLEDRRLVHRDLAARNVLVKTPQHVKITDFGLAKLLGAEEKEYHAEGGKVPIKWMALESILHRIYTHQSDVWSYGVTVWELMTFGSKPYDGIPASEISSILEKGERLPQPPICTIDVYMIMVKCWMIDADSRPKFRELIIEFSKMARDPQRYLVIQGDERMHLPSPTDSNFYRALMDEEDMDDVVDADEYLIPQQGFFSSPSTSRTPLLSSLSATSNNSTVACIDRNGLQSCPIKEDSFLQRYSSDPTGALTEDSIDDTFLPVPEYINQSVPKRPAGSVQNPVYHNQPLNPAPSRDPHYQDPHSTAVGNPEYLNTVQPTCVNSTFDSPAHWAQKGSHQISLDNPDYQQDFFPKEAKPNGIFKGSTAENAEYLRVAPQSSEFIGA
Sequence of Tyrosine-protein kinase Blk (P51451 whole entry, the tested form may be a part): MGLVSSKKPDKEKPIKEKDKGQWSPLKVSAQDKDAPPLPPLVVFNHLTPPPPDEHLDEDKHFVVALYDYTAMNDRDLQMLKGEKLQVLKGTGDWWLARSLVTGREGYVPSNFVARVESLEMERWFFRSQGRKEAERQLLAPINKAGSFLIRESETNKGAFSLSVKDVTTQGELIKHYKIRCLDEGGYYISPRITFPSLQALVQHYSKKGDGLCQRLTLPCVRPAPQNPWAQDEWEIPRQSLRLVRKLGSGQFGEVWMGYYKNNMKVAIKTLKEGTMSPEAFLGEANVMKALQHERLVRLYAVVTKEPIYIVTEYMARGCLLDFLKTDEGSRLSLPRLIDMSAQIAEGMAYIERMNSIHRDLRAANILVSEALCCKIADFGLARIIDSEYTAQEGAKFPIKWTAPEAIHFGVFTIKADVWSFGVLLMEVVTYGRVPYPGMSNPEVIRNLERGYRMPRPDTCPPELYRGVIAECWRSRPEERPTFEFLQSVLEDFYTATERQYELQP

IC50 [1] [nM]	EC50 [2] [nM]	IC50 [3] [nM]	SMILES	also measured
3.8	152	> 1000	CC#CC(=O)Nc1cc2c(Oc3ccc(C(=O)Nc4ccccn4)cc3)ccnc2cc1OC1CCOCC1	
0.96	12	12	COCC#CC(=O)Nc1cc2c(Oc3ccc(C(=O)Nc4ccccn4)cc3)ccnc2cc1OC	
0.26	12	13	O=C(C#CCN1CCOCC1)Nc1ccc2nccc(Oc3ccc(C(=O)Nc4ccccn4)cc3)c2c1	
0.47	2.1	24	COc1cc2nccc(Oc3ccc(C(=O)Nc4ccccn4)cc3)c2cc1NC(=O)C#CCN1CCOCC1	EC50 [8]: 1.5 nM; EC50 (Blood): 12 nM
1.5	29	> 1000	CC#CC(=O)Nc1cc2c(Oc3ccc(C(=O)Nc4ccccn4)cc3)ccnc2cc1OC	EC50 [8]: 9.7 nM; EC50 (Blood): 66 nM

The next lines start with the compound.

SMILES	IC50 [1] [nM]	EC50 [2] [nM]	IC50 [3] [nM]	also measured
COCC#CC(=O)Nc1ccc2nccc(Oc3ccc(C(=O)Nc4ccccn4)cc3)c2c1	0.15	7	16	
C=CC(=O)Nc1ccc2nccc(Oc3ccc(C(=O)Nc4ccccn4)cc3)c2c1	3.5	112	159	
O=C(C#CCO)Nc1ccc2nccc(Oc3ccc(C(=O)Nc4ccccn4)cc3)c2c1	0.33	28	6.3	solubility kinetic [4]: < 1 µM; Ratio IC50 (Homo sapiens): 19
CC#CC(=O)Nc1ccc2nccc(Oc3ccc(C(=O)Nc4ccccn4)cc3)c2c1	4.7	152	> 1000	
O=C(C#CCCN1CCOCC1)Nc1ccc2nccc(Oc3ccc(C(=O)Nc4ccccn4)cc3)c2c1	0.8	25	81	
C=CC(=O)Nc1ccc2ncnc(Oc3ccc(C(=O)Nc4ccccn4)cc3)c2c1			11	EC50 [1]: 7.2 nM; inhibition [5]: Tde
C=CC(=O)Nc1ccc2ncnc(Nc3ccc(C(=O)Nc4ccccn4)cc3)c2c1			3.8	EC50 [1]: 18 nM
CCN1CCN(CC#CC(=O)Nc2ccc3nccc(Oc4ccc(C(=O)Nc5ccccn5)cc4)c3c2)CC1	2.5	18	55	Ratio IC50 (Homo sapiens): 22
CC#CC(=O)N1CCC[C@H]1c1nc(-c2ccc(C(=O)Nc3ccccn3)cc2)c2c(N)nccn12 [ACALABRUTINIB]				IC50 [6]: > 1000 nM; ED50 [7]: 1.3 mg/kg
CN(C)C/C=C/C(=O)Nc1ccc2nccc(Oc3ccc(C(=O)Nc4ccccn4)cc3)c2c1	7.2	89	275	
CC#CC(=O)Nc1cc2c(Oc3ccc(C(=O)Nc4ccccn4)cc3)ccnc2cc1OCCCN1CCN(C)CC1	1	3.9	233	EC50 [8]: 2.1 nM; EC50 (Blood): 35 nM
